Some results are limits rather than exact numbers.

In ChEMBL document CHEMBL1143296, “Thienopyrimidine-based dual EGFR/ErbB-2 inhibitors” (Bioorg Med Chem Lett, 2009) one finds IC50 data, which are given here for 24 molecules.

For assay [1], the system named is BT-474. Description: Antiproliferative activity against human BT474 cells expressing ErbB2 after 72 hrs by CTG assay. The conditions noted are these: BT-474, 72 h.
For assay [2], the system named is HFF. Description: Antiproliferative activity against HFF after 72 hrs by CTG assay. The conditions noted are these: Homo sapiens.
The target in assay [3] is T1, Receptor tyrosine-protein kinase erbB-2 (Homo sapiens, UniProt P04626).
T1 sequence (P04626 whole entry): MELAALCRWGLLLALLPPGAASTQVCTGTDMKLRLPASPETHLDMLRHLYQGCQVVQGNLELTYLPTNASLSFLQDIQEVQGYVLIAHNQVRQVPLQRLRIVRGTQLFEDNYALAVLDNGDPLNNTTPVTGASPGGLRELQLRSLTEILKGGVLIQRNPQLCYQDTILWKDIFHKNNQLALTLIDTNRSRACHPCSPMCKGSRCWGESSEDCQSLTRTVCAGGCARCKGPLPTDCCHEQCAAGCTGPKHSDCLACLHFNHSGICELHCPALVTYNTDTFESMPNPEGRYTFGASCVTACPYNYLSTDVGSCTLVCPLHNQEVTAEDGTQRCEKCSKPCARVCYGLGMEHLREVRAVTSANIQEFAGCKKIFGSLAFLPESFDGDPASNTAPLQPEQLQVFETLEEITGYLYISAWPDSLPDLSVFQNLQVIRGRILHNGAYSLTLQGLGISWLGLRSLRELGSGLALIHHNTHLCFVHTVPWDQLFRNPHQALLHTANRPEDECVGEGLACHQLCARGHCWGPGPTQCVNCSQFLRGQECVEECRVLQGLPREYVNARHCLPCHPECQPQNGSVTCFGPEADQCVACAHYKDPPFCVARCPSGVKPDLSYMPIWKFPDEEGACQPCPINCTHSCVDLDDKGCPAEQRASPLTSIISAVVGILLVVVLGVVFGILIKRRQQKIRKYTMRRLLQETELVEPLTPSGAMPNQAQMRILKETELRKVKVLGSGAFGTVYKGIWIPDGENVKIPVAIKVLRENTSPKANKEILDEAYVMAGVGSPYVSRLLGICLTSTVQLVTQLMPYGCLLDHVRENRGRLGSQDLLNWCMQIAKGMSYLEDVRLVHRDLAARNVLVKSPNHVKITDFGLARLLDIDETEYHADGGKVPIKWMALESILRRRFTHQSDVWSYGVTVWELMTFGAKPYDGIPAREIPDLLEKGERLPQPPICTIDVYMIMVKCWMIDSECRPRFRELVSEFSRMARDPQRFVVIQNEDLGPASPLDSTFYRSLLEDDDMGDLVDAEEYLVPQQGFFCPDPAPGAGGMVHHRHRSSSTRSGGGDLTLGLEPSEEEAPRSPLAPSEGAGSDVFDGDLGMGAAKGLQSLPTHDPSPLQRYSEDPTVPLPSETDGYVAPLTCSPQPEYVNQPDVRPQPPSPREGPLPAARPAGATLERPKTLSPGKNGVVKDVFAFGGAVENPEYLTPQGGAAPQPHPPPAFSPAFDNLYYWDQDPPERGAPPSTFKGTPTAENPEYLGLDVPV
In assay [4] the test system is HN5. Description: Antiproliferative activity against human HN5 cells expressing EGFR after 72 hrs by CTG assay. The note with it: HN5, 72 h.
In assay [5] the target is Epidermal growth factor receptor (Homo sapiens, UniProt P00533).
Chain of Epidermal growth factor receptor (P00533 whole entry): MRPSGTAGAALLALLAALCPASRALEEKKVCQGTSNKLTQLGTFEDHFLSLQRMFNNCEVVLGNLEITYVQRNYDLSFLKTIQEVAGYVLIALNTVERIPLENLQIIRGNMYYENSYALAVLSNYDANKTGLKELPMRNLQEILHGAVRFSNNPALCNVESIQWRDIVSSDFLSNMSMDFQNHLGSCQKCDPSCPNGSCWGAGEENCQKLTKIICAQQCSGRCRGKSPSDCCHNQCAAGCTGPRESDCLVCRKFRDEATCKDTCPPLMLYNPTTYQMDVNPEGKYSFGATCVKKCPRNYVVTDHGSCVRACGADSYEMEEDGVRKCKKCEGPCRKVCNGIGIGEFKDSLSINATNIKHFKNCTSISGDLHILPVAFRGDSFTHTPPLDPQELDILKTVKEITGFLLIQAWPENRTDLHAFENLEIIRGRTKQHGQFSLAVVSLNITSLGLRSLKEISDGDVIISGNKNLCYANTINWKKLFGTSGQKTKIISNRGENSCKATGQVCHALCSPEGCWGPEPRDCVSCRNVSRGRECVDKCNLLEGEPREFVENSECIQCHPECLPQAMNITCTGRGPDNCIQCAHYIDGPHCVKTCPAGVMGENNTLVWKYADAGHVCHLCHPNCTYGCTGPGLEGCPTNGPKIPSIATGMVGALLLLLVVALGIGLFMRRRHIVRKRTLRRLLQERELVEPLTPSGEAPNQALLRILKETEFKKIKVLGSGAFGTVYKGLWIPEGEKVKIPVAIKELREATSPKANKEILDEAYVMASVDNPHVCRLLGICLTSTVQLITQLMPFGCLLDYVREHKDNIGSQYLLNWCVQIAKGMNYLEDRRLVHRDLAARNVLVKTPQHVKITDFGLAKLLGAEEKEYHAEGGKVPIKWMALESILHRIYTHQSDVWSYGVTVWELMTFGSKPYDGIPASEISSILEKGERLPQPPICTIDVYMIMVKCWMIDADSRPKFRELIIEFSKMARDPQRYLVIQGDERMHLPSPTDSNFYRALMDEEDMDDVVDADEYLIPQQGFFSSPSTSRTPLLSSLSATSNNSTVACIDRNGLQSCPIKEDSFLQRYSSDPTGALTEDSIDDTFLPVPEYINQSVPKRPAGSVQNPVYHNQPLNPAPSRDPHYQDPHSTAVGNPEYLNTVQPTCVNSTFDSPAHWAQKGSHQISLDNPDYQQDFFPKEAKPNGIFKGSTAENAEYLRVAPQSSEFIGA
Assay [6] deals with HFF. In words: Antiproliferative activity against HFF after 72 hrs by MEB assay. The conditions noted are these: Homo sapiens.
For assay [7], the system named is HN5. Description: Antiproliferative activity against human HN5 cells expressing EGFR by MEB assay.
The test system of assay [8] is BT-474. Description: Antiproliferative activity against human BT474 cells expressing ErbB2 by MEB assay.
Assay [9] has as its target T1, Receptor tyrosine-protein kinase erbB-2. Description: Inhibition of ErbB2 intracellular autophosphorylation of ErbB2 in human BT474 cells by DELFIA assay. The class given is cell-based, BT-474.

A word on the IC50: it is the concentration at which inhibition is half-maximal. Take `Fc1cccc(COc2ccc(Nc3ncnc4cc(-c5cccs5)sc34)cc2Cl)c1`: the IC50 amounted to 5.77 µM with BT-474 [1]; 10.7 µM with HFF [2]; 0.113 µM in [3]; 2.19 µM with HN5 [4]; 0.008 µM in assay [5].
Regarding `OCc1ccc(-c2cc3ncnc(Nc4ccc(OCc5cccc(F)c5)c(Cl)c4)c3s2)o1`, the IC50 was 9.39 µM in the assay on HFF [6]; 0.1 µM in the assay with HN5 [7]; 0.72 µM with BT-474 [8]; 0.122 µM in [3]; 0.003 µM in [5].
For the molecule `N#CCNCc1ccc(-c2cc3ncnc(Nc4ccc(OCc5cccc(F)c5)c(Cl)c4)c3s2)o1`, in assay [3], the IC50 stood at 0.068 µM.
In the case of `Fc1cccc(COc2ccc(Nc3ncnc4cc(-c5ccc[nH]5)sc34)cc2Cl)c1`, the IC50 in assay [9] amounted to 0.826 µM; with HFF [6], 2.37 µM; with HN5 [7], 0.57 µM; with BT-474 [8], 0.54 µM; in [3], 0.121 µM; in [5], 0.068 µM.
Regarding `CN(C)Cc1ccc(-c2cc3ncnc(Nc4ccc(OCc5cccc(F)c5)c(Cl)c4)c3s2)[nH]1`, the IC50 in [3] turned out to be 0.076 µM; in [5], 0.004 µM.
On the same counts, the results for `CCNCc1ccc(-c2cc3ncnc(Nc4ccc(OCc5cccc(F)c5)c(Cl)c4)c3s2)[nH]1` are 0.068 µM and 0.006 µM.
Take `CS(=O)(=O)CCNCc1cc(-c2cc3ncnc(Nc4ccc(OCc5cccc(F)c5)c(Cl)c4)c3s2)cs1`: the IC50 is more than 30 µM in the assay with HFF [6]; 0.1 µM in the assay on HN5 [7]; 0.6 µM in the assay on BT-474 [8]; 0.031 µM in [3]; 0.003 µM in assay [5].
Regarding `CS(=O)(=O)CCNCc1ccc(-c2cc3ncnc(Nc4ccc(OCc5cccc(F)c5)c(Cl)c4)c3s2)[nH]1`, the IC50 was 0.63 µM in the assay with BT-474 [1]; 0.431 µM in assay [9]; 3.73 µM in the assay on HFF [2]; 0.113 µM in assay [3]; 0.77 µM in the assay on HN5 [4]; 0.007 µM in [5].
Consider `CN(C)Cc1ccc(-c2cc3ncnc(Nc4ccc(OCc5cccc(F)c5)c(Cl)c4)c3s2)o1`, for which the IC50 came to 1.88 µM in the assay with BT-474 [1]; 4.46 µM with HFF [2]; 0.146 µM in [3]; 1.22 µM in the assay with HN5 [4]; 0.002 µM in assay [5].
`Fc1cccc(COc2ccc(Nc3ncnc4sc(-c5ccc[nH]5)cc34)cc2Cl)c1`: the IC50 in the assay with HFF [6] is more than 3 µM; in the assay on HN5 [7] it was 2.71 µM; in the assay with BT-474 [8] it was 1.98 µM; in [3], 0.203 µM; in [5], 0.115 µM.
With `CN(C)Cc1ccc(-c2cc3c(Nc4ccc(OCc5cccc(F)c5)c(Cl)c4)ncnc3s2)[nH]1`, the values for the IC50 in [3] and in assay [5] were 0.246 µM and 0.068 µM, respectively.
`CS(=O)(=O)CCNCc1ccc(-c2cc3ncnc(Nc4ccc(OCc5cccc(F)c5)c(Cl)c4)c3s2)o1`: the IC50 in the assay on BT-474 [1] was 0.42 µM; in the assay on HFF [2] it was more than 30 µM; in assay [3] it was 0.071 µM; in the assay on HN5 [4], 0.41 µM; in assay [5] it was 0.001 µM.
In the case of `CS(=O)(=O)CCNCc1cc(-c2cc3ncnc(Nc4ccc(OCc5cccc(F)c5)c(Cl)c4)c3s2)co1`, the IC50 came to 7.95 µM with HFF [6] and 0.73 µM in the assay on BT-474 [8].
As to `Fc1cccc(COc2ccc(Nc3ncnc4cc(-c5ccco5)sc34)cc2Cl)c1`, the IC50 in the assay with BT-474 [1] is 21.2 µM; with HFF [2] it was more than 30 µM; in assay [3], 0.709 µM; with HN5 [4], 8.09 µM; in assay [5], 0.01 µM.
Turning to `CCNCc1ccc(-c2cc3c(Nc4ccc(OCc5cccc(F)c5)c(Cl)c4)ncnc3s2)[nH]1`, the figures for the IC50 in [3] and in assay [5] were 0.111 µM and 0.121 µM, respectively.
Regarding `CS(=O)(=O)CCNCc1ccc(-c2cc3c(Nc4ccc(OCc5cccc(F)c5)c(Cl)c4)ncnc3s2)o1`, the IC50 with BT-474 [1] came to 0.42 µM; in the assay with HFF [2] it was 19.5 µM; in [3], 0.006 µM; in the assay on HN5 [4], 0.42 µM; in [5], 0.012 µM.
Turning to `CS(=O)(=O)CCNCc1ccc(-c2cc3c(Nc4ccc(OCc5cccc(F)c5)c(Cl)c4)ncnc3s2)s1`, the IC50 came out at 0.095 µM in [3] and 0.096 µM in [5].
In the case of `CS(=O)(=O)CCNCc1ccc(-c2cc3c(Nc4ccc(OCc5cccc(F)c5)c(Cl)c4)ncnc3s2)[nH]1`, the IC50 in assay [3] is 0.153 µM; in [5], 0.138 µM.
On the same counts, the results for `Fc1cccc(COc2ccc(Nc3ncnc4sc(-c5ccc(CNCc6ccccc6)o5)cc34)cc2Cl)c1` are 0.898 µM and 0.054 µM.
On the same counts, the results for `CS(=O)(=O)CCNCc1cc(-c2cc3c(Nc4ccc(OCc5cccc(F)c5)c(Cl)c4)ncnc3s2)cs1` [GSK-300014A] are 0.299 µM and 0.304 µM.
As for `Fc1cccc(COc2ccc(Nc3ncnc4sc(-c5ccco5)cc34)cc2Cl)c1` [GSK-969786A], the IC50 in the assay on BT-474 [1] is more than 30 µM; with HFF [2], more than 30 µM; in assay [3] it was 0.014 µM; in the assay on HN5 [4], more than 30 µM; in assay [5], 0.015 µM.
Turning to `Fc1cccc(COc2ccc(Nc3ncnc4sc(-c5cccs5)cc34)cc2Cl)c1` [GW684626B], the half-maximal inhibitory concentration (IC50) was 3.22 µM with BT-474 [1]; 9.72 µM with HFF [2]; 0.043 µM in assay [3]; 10.1 µM with HN5 [4]; 0.009 µM in [5].
Take `CN1CCN(Cc2ccc(-c3cc4ncnc(Nc5ccc(OCc6cccc(F)c6)c(Cl)c5)c4s3)o2)CC1` [GW784684X]: the IC50 stood at 0.25 µM in [3] and 0.005 µM in assay [5].
In the assay with BT-474 [8], `CS(=O)(=O)CCNCc1ccc(-c2ccc3ncnc(Nc4ccc(OCc5cccc(F)c5)c(Cl)c4)c3c2)o1` [LAPATINIB DITOSYLATE] returned an IC50 of 0.1 µM.
